Experimental data taken from paper PMC10066365, “Nemacol is a small molecule inhibitor of C. elegans vesicular acetylcholine transporter with anthelmintic potential” (Nature Communications, 2023).

Test system: Dirofilaria immitis microfilariae
Assay: Dirofilaria immitis microfilariae immobility assay (DiroImager, 72 h)
Settings: for EC50: Dirofilaria immitis, 72 h, read-out: Dirofilaria immitis filariae EC50
How it was run: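 Motility read after 72 h drug exposure with an image-based high-throughput plate imager, 1% DMSO medium serving as negative control. Missouri-isolate microfilariae, roughly 250 per well, freshly purified and cultured in supplemented RPMI 1640.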

[1] = 0.08 µM, Dirofilaria immitis microfilariae
[2] = 0.4 µM, Dirofilaria immitis microfilariae
[3] = 2 µM, Dirofilaria immitis microfilariae
[4] = 10 µM, Dirofilaria immitis microfilariae
[5] = 50 µM, Dirofilaria immitis microfilariae

Row | SMILES | % effect (motility), DIROIM MF [1] [%] | % effect (motility), DIROIM MF [2] [%] | % effect (motility), DIROIM MF [3] [%] | % effect (motility), DIROIM MF [4] [%] | % effect (motility), DIROIM MF [5] [%] | EC50 [µM] | % effect (motility), DIROIM MF (0.016 µM) [%] | % effect (motility), DIROIM MF (0.08 µM) [%] | % effect (motility), DIROIM MF (0.4 µM) [%] | % effect (motility), DIROIM MF (2 µM) [%] | % effect (motility), DIROIM MF (10 µM) [%] | % effect (motility), DIROIM MF (50 µM) [%]
1 | O=[N+]([O-])c1ccc(N2CCN(CC3CC=CCC3)CC2)cc1 (stereo not shown) [Nemacol-4] | 0 | 0 | 0 | 100 | 100 | 5.2 | – | – | – | – | – | –
2 | O=[N+]([O-])c1ccc(N2CCN(CC3CC4C=CC3C4)CC2)cc1 (stereo not shown) [Nemacol-3] | 0 | 0 | 0 | 80 | 100 | 9.1 | – | – | – | – | – | –
3 | O=[N+]([O-])c1ccc(N2CCN(CC3CCCCC3)CC2)cc1 [Nemacol-1] | – | – | – | – | – | 2.2 | 0 | 0 | 0 | 20 | 100 | 100
